Several values for one entry are separate records, joined by “and”; a condition that tells them apart may be missing. Equal values may be shown once. Entries after “also recorded” stand apart in the source; their conditions may differ. Read-outs that look alike come from different tables or passages of the source.
Experiments:
αHL•βCD = αHL•βCD (Staphylococcus aureus, UniProt P09616); assay: biochemical; type: biochemical; conditions: for K^Af (formation constant of αHL•βCD•A) / ΔG of analyte binding to αHL•βCD: pH 3.0
αHL pore = αHL pore (Staphylococcus aureus, UniProt P09616); type: biochemical
[1] = type: binding; conditions: pH 3.0
[2] = cited from earlier work
WT-αHL pore = WT-αHL pore (Staphylococcus aureus, UniProt P09616); type: biochemical; conditions: pH 7.5
WT-αHL pore, sequence (P09616 27-319 limits assumed): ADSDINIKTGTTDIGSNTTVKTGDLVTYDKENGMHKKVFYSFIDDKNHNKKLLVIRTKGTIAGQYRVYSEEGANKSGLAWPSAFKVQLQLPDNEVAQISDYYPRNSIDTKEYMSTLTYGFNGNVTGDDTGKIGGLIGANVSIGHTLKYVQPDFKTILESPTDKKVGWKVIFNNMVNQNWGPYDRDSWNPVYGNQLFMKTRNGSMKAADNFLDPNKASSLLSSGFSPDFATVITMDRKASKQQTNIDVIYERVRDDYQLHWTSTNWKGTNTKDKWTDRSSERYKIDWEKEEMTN

αHL pore, sequence (P09616 27-319 limits assumed): as above
αHL•βCD, sequence (P09616 27-319 limits assumed): as above

## Cl.NC12CC3CC(CC(C3)C1)C2 [1-adamantanamine hydrochloride]
αHL•βCD
  (IP·C·A IP·C)/(IP·C·A-IP): 0.294 ± 0.005
  Kd: 109 ± 4.95 µM
  Residence time (τ) of the analyte on αHL·βCD: 1.42 ± 0.14 ms

## NC(=O)C12CC3CC(CC(C3)C1)C2 [1-adamantanecarboxamide]
αHL•βCD
  (IP·C·A IP·C)/(IP·C·A-IP): 0.333 ± 0.005
  Kd: 34.2 ± 2.77 µM
  Residence time (τ) of the analyte on αHL·βCD: 3.99 ± 0.18 ms

## O=C(O)C12CC3CC(CC(C3)C1)C2 [1-adamantanecarboxylic acid]
αHL pore
  binding to the pore without adapter/carrier: does not bind to the pore
αHL•βCD
  (IP·C·A IP·C)/(IP·C·A-IP): 0.346 ± 0.005
  Kd: 7.53 ± 1.16 µM
  Residence time (τ) of the analyte on αHL·βCD: 14.0 ± 0.79 ms
  conductance of the partially blocked channel (αHL•βCD) with guest: 112.2 pS
  residence time (τ) of guest: 14.0 ms
  single channel current level, additional block of αHL•βCD: −4.7 pA
  K^Af (formation constant of αHL•βCD•A): 1.35±0.19×10^5 M^−1
  ΔG of analyte binding to αHL•βCD: -7.0 kcal/mol
[1]
  K^Af (formation constant of analyte with βCD in solution): 5.76±1.50×10^4 M^−1
  ΔG of analyte binding to βCD in solution: -6.5 kcal/mol
[2]; pH 4.05
  Literature ΔG for binding to βCD: -7.5 kcal/mol
[2]; pH 7.2
  Literature ΔG for binding to βCD: -6.4 kcal/mol

## OCCC12CC3CC(CC(C3)C1)C2 [1-adamantaneethanol]
αHL•βCD
  (IP·C·A IP·C)/(IP·C·A-IP): 0.348 ± 0.003
  Kd: 3.33 ± 1.07 µM
  Residence time (τ) of the analyte on αHL·βCD: 30.6 ± 2.42 ms

## Cl.NC1C2CC3CC(C2)CC1C3 (stereo not shown) [2-adamantanamine hydrochloride]
αHL pore; hydrochloride
  effect on the completely open channel: does not affect; also recorded: no effect
αHL•βCD
  (IP·C·A IP·C)/(IP·C·A-IP): 0.286 ± 0.004
  Kd: 98.6 ± 14.3 µM
  Residence time (τ) of the analyte on αHL·βCD: 2.54 ± 0.21 ms
  conductance of the partially blocked channel (αHL•βCD) with guest: 126.5 pS
  residence time (τ) of guest: 2.54 ms
  residence time of βCD•A on αHL compared with βCD: greater than βCD itself
  single channel current level, additional block of αHL•βCD: −5.7 pA
  K^Af (formation constant of αHL•βCD•A): 1.03±0.15×10^4 M^−1
  ΔG of analyte binding to αHL•βCD: -5.5 kcal/mol
[1]
  K^Af (formation constant of analyte with βCD in solution): 9.84±2.19×10^3 M^−1
  ΔG of analyte binding to βCD in solution: -5.5 kcal/mol

## CC(=O)NC12CC3CC(CC(C3)C1)C2 [N-(1-adamantyl)acetamide, N-(1-adamantyl)-acetamide]
αHL•βCD
  (IP·C·A IP·C)/(IP·C·A-IP): 0.348 ± 0.003
  Kd: 14 ± 2.24 µM
  Residence time (τ) of the analyte on αHL·βCD: 7.32 ± 2.13 ms

## heptakis-6-sulfato-β-cyclodextrin [s7βCD]
WT-αHL pore
  PK+/PNa+: 0.92
  dwell time (τ) of adapter on WT-αHL pore: 846 ± 37 ms
  g (conductance): 53 pS and 53 ± 6 pS

## α-cyclodextrin
αHL pore
  block of the ionic current: reversible partial blocks

## β-cyclodextrin [βCD]
αHL pore
  block of the ionic current: reversible partial blocks
  partial block of the channel: 64%
  single channel current level with βCD bound: −11.5 pA
αHL pore; pH 3
  K^Cf (equilibrium formation constant αHL•βCD): 475 M⁻¹
  conductance of αHL in the presence of βCD: 272 pS
  k^Coff: 115 s⁻¹
  k^Con: 54600 M⁻¹ s⁻¹
WT-αHL pore
  dwell time (τ) of adapter on WT-αHL pore: 0.84 ms
  g (conductance): 240 pS and 240 ± 5 pS

## γ-cyclodextrin [γCD]
αHL pore
  block of the ionic current: reversible partial blocks
WT-αHL pore
  g (conductance): 328 pS and 328 ± 4 pS
